The record followed here is ChEMBL document CHEMBL1157539, “Thousands of chemical starting points for antimalarial lead identification” (Nature, 2010).

The test system of this assay is Plasmodium falciparum. The assay can be described thus: GSK_TCMDC: Inhibition of Plasmodium falciparum 3D7 in whole erythrocytes, using parasite LDH activity as an index of growth. The note with it: Plasmodium falciparum, 3D7. Type of assay: functional, organism-based.
Regarding `CCc1cc2c3c(N)nc(N)nc3ccc2n1CC`, the XC50 was 10.3 nM.

The compound `NCc1ccc(CNCc2ccc(-c3ccc(-c4nc5cc(F)ccc5[nH]4)cc3)cc2)cc1` had an XC50 of 402 nM.

Regarding `COc1ccc2nccc([C@@H](O)CN3CCC(NCc4ccc5c(c4)NC(=O)CS5)CC3)c2n1`, the XC50 came out at 747 nM.

In the case of `O=C(Nc1cccc(CN2CCCN(Cc3cccnc3)CC2)c1)c1cc2ccccc2s1`, the XC50 worked out at 1470 nM.

Consider `Cc1ccc2c(=NN=Cc3ccc(Cl)cc3)cc(C)[nH]c2c1`, for which the XC50 turned out to be 945 nM.

In turn, `O=C(Nc1ccc(CC(=O)N2CCc3cc(Cl)c(N4CCN(C/C=C/c5ccccc5)CC4)cc32)cc1)Nc1cccc([N+](=O)[O-])c1` showed an XC50 of 761 nM.

Turning to `O=C(O)C[C@H](NC(=O)CCCNC(=O)c1cccc(-c2ccc(Cl)c(Cl)c2)c1)C(=O)O`, the XC50 is 881 nM.

For `Fc1ccc2[nH]ccc(=NN=CC=Cc3ccccc3)c2c1`, the XC50 came out at 681 nM.

`CN(Cc1cccc(C#N)c1)C1CCN(c2cc(NC(=O)c3ccc(F)cc3)ccn2)CC1`: the XC50 was determined as 1070 nM.

`Oc1cccc2c1CC(NCc1ccccc1)CC2` (centres undefined) gave an XC50 of 887 nM.

Compound `COc1cccc(C(O)CNc2ccnc(Nc3ccc(Cl)cc3)n2)c1` (centres undefined) yielded an XC50 of 606 nM.

For `CCCCCCCc1cc(=O)c2ccccc2[nH]1`, the XC50 was 317 nM.

With `COc1ccc(CN(C)CC(O)COc2ccc(NC(=O)c3cccc4c(=O)c5cccc(OC)c5[nH]c34)cc2)cc1OC` (centres undefined), the XC50 amounted to 780 nM.

In turn, `CC(=O)Nc1cccc(C(=O)Nc2cccc(-c3ccc(-c4nc5cc(F)ccc5[nH]4)cc3)c2)c1` returned an XC50 of 764 nM.

`COc1ccc(-c2csc(NC(=O)CCC(=O)O)n2)cc1OC` returned an XC50 of 842 nM.

In the case of `CN(c1ccc(F)cc1)S(=O)(=O)c1ccc(Cl)c(C(=O)Nc2cccc(C#N)c2)c1`, the XC50 stood at 699 nM.

`O=C(/C=C/c1ccc(Cl)c(Cl)c1)NCCCCCN1CCC(NC(=O)Nc2ccc(F)cc2F)CC1` registered an XC50 of 739 nM.

With `Cc1cc(N[C@@H](CC(C)C)C(=O)NCCOc2ccccc2)nc(Nc2ccccc2)n1`, the XC50 is 1110 nM.

The compound `Cc1ccc(Oc2cnn(C)c(=O)c2Nc2cccc(C(=O)NCCc3ccccn3)c2)c(C)c1` showed an XC50 of 494 nM.

`Cc1ccc2c(C3=CCN(CCCCC4(C)C(=O)Nc5c(F)cccc54)CC3)c(C)[nH]c2c1` (centres undefined): the XC50 turned out to be 265 nM.

In turn, `Cc1cc(C)cc(Oc2c(C(F)(F)F)oc3c(CN4CC(C)OC(C)C4)c(O)ccc3c2=O)c1` (centres undefined) displayed an XC50 of 939 nM.

Consider `Nc1nccc2ccc(-c3ccsc3)cc12`, for which the XC50 came to 332 nM.

In the case of `Cc1ccc(OCCCON2C(=N)N=C(N)NC2(C)C)cc1C`, the XC50 worked out at 3.2 nM.

`COc1cccc(OC2CCN(C(=O)c3cc(C(C)(C)C)nn3Cc3ccccc3)CC2)c1` displayed an XC50 of 254 nM.

Take `O=S(=O)(c1ccc(OC(F)(F)F)cc1)C1CC2CCC(C1)N2S(=O)(=O)c1ccc(Cl)c(C(F)(F)F)c1` (centres undefined): the XC50 stood at 560 nM.

In turn, `CS(=O)(=O)Nc1ccc(-c2ccc3ccnc(N)c3c2)cc1` had an XC50 of 614 nM.

Compound `Nc1nc(N)c2c(ccc3c2ccn3Cc2ccc3c(c2)OCO3)n1` displayed an XC50 of 3.2 nM.

For `Cc1cc(NCCC(=O)NCc2cccc(F)c2)nc(Nc2ccccc2)n1`, the XC50 came to 1050 nM.

For the compound `c1cc(CN2CCCCC2)cc(-c2ccc(-c3nc4ccccc4[nH]3)cc2)c1`, the XC50 worked out at 889 nM.

`CC1(CCc2ccccc2)N=C(N)N=C(N)C1c1ccc(Cl)c(Cl)c1` (centres undefined) showed an XC50 of 316 nM.

Turning to `Cc1cc(NC(=O)c2cccs2)ccc1OC1CCN(Cc2ccc(F)cc2)CC1`, the XC50 turned out to be 481 nM.

Compound `Cc1cccc2nc(-c3ccc(-c4ccc(CNCC(C)C)cc4)cc3)[nH]c12` gave an XC50 of 405 nM.

Compound `CN(C)CCN(C)Cc1cccc(-c2ccc3c(Nc4cc(O)c(Cl)cc4F)ccnc3c2)c1` gave an XC50 of 237 nM.

`Cc1noc(C)c1-c1cccc(CNCc2cccc(-c3ccc(-c4nc5cccc(C)c5[nH]4)cc3)c2)c1` showed an XC50 of 191 nM.

The compound `CCCc1cc(C(=O)N[C@@H](Cc2ccccc2)[C@H](O)CNC(C)(C)c2cccc(OC)c2)c(F)c(N2CCCC2=O)c1` returned an XC50 of 95.7 nM.

`Cc1cc(N[C@@H](Cc2ccccc2)C(=O)NCCc2ccccc2)nc(NCc2ccccc2C)n1` gave an XC50 of 879 nM.

Consider `O=C(Nc1cc(C(F)(F)F)cc(C(F)(F)F)c1)Nc1cc(C(F)(F)F)cc(C(F)(F)F)c1`, for which the XC50 was 727 nM.

As for `CCCCn1c(-c2ccco2)nc2c(c(=O)c3ccccc3n2C)c1=O`, the XC50 was 1240 nM.

Regarding `Oc1ccc2[nH]c(-c3cccs3)nc2c1CN1CCC(N2CCCC2)CC1`, the XC50 came out at 642 nM.

The compound `Cc1c(CNCCCNc2cc(=O)c3ccccc3[nH]2)sc(C(F)F)c1Br` registered an XC50 of 867 nM.

Consider `COc1ccc2nc3cc(Cl)ccc3c(N)c2c1`, for which the XC50 is 165 nM.

Take `CCOC(=O)CNC(=O)c1cc(=O)c2ccccc2o1`: the XC50 was found to be 210 nM.

On to `Cc1c(OC(C)C)nc2ccccc2c1C(=O)N[C@H](c1cccc(F)c1)C1CC1`, for which the XC50 stood at 1090 nM.

With `O=C(/C=C/c1ccc(Cl)c(Cl)c1)NCCCCCN1CCC(NC(=S)Nc2ccc(Cl)cc2Cl)CC1`, the XC50 came to 738 nM.

As to `COc1ccc2nccc([C@@H](O)CN3CCC(NC(=O)CCC(=O)c4cc(C(C)(C)C)ccc4OC)CC3)c2c1`, the XC50 came out at 846 nM.

In turn, `O=C(CCCCCNC(=O)c1ccc(O)c(-c2ccc(Cl)c(Cl)c2)c1)NCCN1CCCC1` showed an XC50 of 980 nM.

Consider `CC(=O)Nc1ccc(CN2CCC(NC(=O)c3ccc(-c4cccc(C(F)(F)F)c4)s3)CC2)cc1`, for which the XC50 is 890 nM.

Compound `CN(c1ccc2c(c1)nc(NC(=O)C1(c3cc(F)ccc3F)CC1)n2C)c1ccnc(Nc2cccc(CS(C)(=O)=O)c2)n1` returned an XC50 of 1100 nM.

In turn, `Cc1cccc2nc(-c3ccc(-c4ccc(CNCCCN5CCCC5=O)cc4)s3)[nH]c12` yielded an XC50 of 749 nM.

In turn, `COc1ccc2nccc(N3CCC(CCNCc4ccc5c(n4)NC(=O)CO5)CC3)c2n1` showed an XC50 of 998 nM.

In the case of `CCCOc1ccccc1C(=O)Nc1nonc1-c1ccc(OCC)c(OCC)c1`, the XC50 is 711 nM.

On to `CCc1ccc(-c2cnc(N)c3cc(-c4ccnc(N)n4)ccc23)cc1`, for which the XC50 worked out at 1350 nM.

Consider `Cc1ccc(Nc2nccc(NCC(O)c3ccc(C(F)(F)F)cc3)n2)cc1` (centres undefined), for which the XC50 is 491 nM.

Take `O=C(Nc1ccccc1)N(Cc1ccccc1-c1cccc(CNC2CCCC2)c1)C1CCN(Cc2ccccc2)CC1`: the XC50 was determined as 168 nM.

In turn, `O=C(NC1CCN(c2ccnc3ccccc23)C1)c1cccc(C(F)(F)F)c1` (centres undefined) had an XC50 of 897 nM.

`Cc1ccc(NC(=O)Nc2ccc(Cl)c(C(F)(F)F)c2)cc1-c1ccc(C(=O)Nc2ccncc2)cc1`: the XC50 turned out to be 264 nM.

Regarding `COc1ccc2c(ccc3c2ncc2c(=O)n(-c4ccccc4)[nH]c23)c1`, the XC50 was 520 nM.

On to `Cc1nc(C)c(-c2ccc(Oc3ccc(Cl)c(Cl)c3)cc2)c(O)c1Br`, for which the XC50 was 304 nM.

On to `c1ccc(CN2CCC(Nc3ccc(-c4c[nH]nc4-c4ccccn4)nc3)CC2)cc1`, for which the XC50 was 799 nM.

In the case of `Cc1ccccc1NC(=S)NC1CCN(CCCCCNC(=O)/C=C/c2ccc(Cl)c(Cl)c2)CC1`, the XC50 came out at 795 nM.

Compound `C[C@H](Cc1ccc(OCCCCCCOc2ccc(C[C@@H](C)NC(=O)[C@H](O)c3cccc(Cl)c3)cc2)cc1)NC[C@H](O)c1cccc(Cl)c1` showed an XC50 of 381 nM.

`Cc1cccc(-c2nc3[nH]c(=O)cc(NC(=O)C(C)C)n3n2)c1` yielded an XC50 of 421 nM.

Take `Cc1cccc(-c2ccc(NC(=O)Nc3ccc4nccc(N5CCN(C)CC5)c4c3)cc2C)n1`: the XC50 is 212 nM.

As to `CCC1CN(CCCn2c3ccccc3c3ccccc32)C(CC)CN1` (centres undefined), the XC50 is 1080 nM.

In turn, `N/C(=N\c1cccc(Cc2ccccc2)n1)NCc1ccccc1` gave an XC50 of 863 nM.

As to `Cc1nnc(Sc2ncnc3scc(-c4ccc(F)cc4)c23)s1`, the XC50 turned out to be 811 nM.

Take `Cc1[nH]c2ccc(-c3ccccc3)cc2c(=O)c1Br`: the XC50 came to 162 nM.

Compound `CN(C)CCC1CCN(CCS(=O)(=O)c2cccc(Nc3ccc(-c4cccc(F)c4)cn3)c2)CC1` registered an XC50 of 1070 nM.

On to `N#Cc1ccc(C2CCN(CC[C@H](N)Cc3ccc(Cl)s3)CC2)cc1`, for which the XC50 was determined as 1260 nM.

Regarding `Cc1cccc2nc(-c3cccc(-c4ccc(C(=O)NCc5ccccc5S(C)(=O)=O)cc4)c3)[nH]c12`, the XC50 came out at 750 nM.

Turning to `Fc1ccc(N(c2nc(-c3cc(F)cc(C(F)(F)F)c3)cs2)C2CCNCC2)cc1`, the XC50 is 956 nM.

As to `CC(=O)C1(c2ccccc2)CCN(CCC2(c3ccc(Cl)c(Cl)c3)CN(C(=O)Nc3cc(F)cc(F)c3)CCO2)CC1` (centres undefined), the XC50 turned out to be 1480 nM.

In the case of `O=C(Nc1nc2cc(S(=O)(=O)NCCc3cccc(F)c3)ccc2n1CCCn1ccnc1)c1ccc(Cl)cc1`, the XC50 stood at 1270 nM.

The compound `O=C(CSc1ccccn1)Nc1c(F)cccc1F` showed an XC50 of 1210 nM.

With `COCCOc1ccc(Nc2nccc(-c3c(-c4cccc(NC(=O)c5c(F)cccc5F)c4)nn4ccccc34)n2)cc1F`, the XC50 stood at 950 nM.

`CCn1c(CN2CCN(Cc3ccccc3)CC2)nc2cc(NC(=O)c3cccs3)ccc21` returned an XC50 of 402 nM.

For `O=c1ccc(-c2nc3cc(Cl)c(Cl)cc3n2Cc2ccc(Cl)cc2Cl)c[nH]1`, the XC50 was 1110 nM.

On to `CCc1nn2c(Nc3ccncc3)cc(C)nc2c1-c1ccccc1`, for which the XC50 came out at 203 nM.

`N#Cc1cccc(-c2nc(NCc3cccc(C(F)(F)F)c3)nn2-c2cccc(C(F)(F)F)c2)c1` returned an XC50 of 592 nM.

As to `O=C(c1ccc2ccccc2n1)N1CCCc2cc(Br)ccc21`, the XC50 is 858 nM.

Turning to `CCc1sc(N2CCC(C)CC2)nc1C(=O)Nc1ccc(F)cc1C(F)(F)F`, the XC50 came out at 1090 nM.

Compound `O=C(Nc1ccccc1F)NC1CCN(c2ccnc(Nc3ccc(F)cc3)n2)CC1` showed an XC50 of 754 nM.

Turning to `OCCN1CCN(c2ccc(Nc3ccnc4cc5ccccc5cc34)cc2)CC1`, the XC50 came out at 41 nM.

Regarding `O=C(Cn1cnc2c(nnn2Cc2ccccc2F)c1=O)Nc1ccc2c(c1)OCCO2`, the XC50 was 949 nM.

In the case of `O=C(Nc1ccc(OC2CCN(Cc3ccc(F)cc3)C2)cc1)c1ccco1` (centres undefined), the XC50 is 1040 nM.

Turning to `N#Cc1ccc(C(=O)Nc2ccc(-c3cccc(CN4CCCC4)c3)cc2)cc1`, the XC50 is 1000 nM.

`COc1cc(C(=O)Nc2cccc(-c3nc4ccccc4[nH]3)c2)ccc1OC(C)=O` displayed an XC50 of 762 nM.

Take `COc1cccc(C(=O)Nc2nonc2-c2ccc(OC)c(OC)c2)c1`: the XC50 came to 801 nM.

Take `c1ccc(-c2cc3cccc(-c4nc5cnccc5[nH]4)c3o2)cc1`: the XC50 worked out at 115 nM.
